Laboratory results published in publication PMC3631187, “Structural and Functional Insights into Saccharomyces cerevisiae Riboflavin Biosynthesis Reductase RIB7” (PLoS ONE, 2013).

T1: ScRIB7 (Saccharomyces cerevisiae, UniProt P33312, T79A)
T1 construct: gene RIB7; recombinant in E. coli BL21(DE3), pGEX6p-1, GST tag removed with PreScission protease; homodimer, ~43 kDa by sedimentation
T1 sequence (P33312 1-244 T79A): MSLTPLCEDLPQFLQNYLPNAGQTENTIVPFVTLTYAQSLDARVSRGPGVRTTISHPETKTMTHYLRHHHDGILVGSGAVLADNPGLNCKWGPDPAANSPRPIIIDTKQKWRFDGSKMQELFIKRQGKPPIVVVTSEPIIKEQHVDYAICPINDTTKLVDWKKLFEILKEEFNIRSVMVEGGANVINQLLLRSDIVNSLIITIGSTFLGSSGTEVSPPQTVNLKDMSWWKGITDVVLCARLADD

T2: ScRIB7 (Saccharomyces cerevisiae, UniProt P33312)
T2 construct: gene RIB7; recombinant in E. coli BL21(DE3), pGEX6p-1, GST tag removed with PreScission protease; homodimer, ~43 kDa by sedimentation
T2 sequence (P33312 1-244): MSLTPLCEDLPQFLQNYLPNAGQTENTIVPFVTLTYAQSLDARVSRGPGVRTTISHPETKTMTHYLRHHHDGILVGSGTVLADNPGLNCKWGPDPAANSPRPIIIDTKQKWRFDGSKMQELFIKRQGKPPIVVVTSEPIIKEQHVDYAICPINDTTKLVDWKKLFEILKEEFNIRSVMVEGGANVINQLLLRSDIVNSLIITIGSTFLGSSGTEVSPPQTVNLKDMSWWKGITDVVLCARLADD

T3: ScRIB7 (Saccharomyces cerevisiae, UniProt P33312, D83A)
T3 construct: gene RIB7; recombinant in E. coli BL21(DE3), pGEX6p-1, GST tag removed with PreScission protease; homodimer, ~43 kDa by sedimentation
T3 sequence (P33312 1-244 D83A): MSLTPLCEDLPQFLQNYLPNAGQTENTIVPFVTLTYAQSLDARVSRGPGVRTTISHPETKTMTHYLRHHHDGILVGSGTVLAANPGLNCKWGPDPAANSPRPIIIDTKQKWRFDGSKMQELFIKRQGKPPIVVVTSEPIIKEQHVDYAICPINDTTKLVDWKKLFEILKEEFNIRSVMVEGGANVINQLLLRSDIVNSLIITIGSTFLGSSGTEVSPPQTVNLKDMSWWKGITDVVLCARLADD


Tests used:
ScRIB7 [1] = target: T1, ScRIB7; assay: isothermal titration calorimetry; assay type: binding; conditions: 80 µM protein titrated with 800 µM NADPH in PBS
ScRIB7 [2] = target: T2, ScRIB7; assay: isothermal titration calorimetry; assay type: binding; conditions: 80 µM protein titrated with 800 µM NADPH in PBS; crystal structure of the complex (2.35 Å) also solved
ScRIB7 [3] = target: T3, ScRIB7; assay: isothermal titration calorimetry; assay type: binding; conditions: 80 µM protein titrated with 800 µM NADPH in PBS
[4] = target: the molecule itself; assay: SEC; gel filtration, data not shown; conditions of this run not told

Molecule | no interaction heat detected (ScRIB7 [1]) | binding constant (ScRIB7 [2]) | binding constant (ScRIB7 [3]) | stoichiometry N [4]
NC(=O)C1=CN([C@@H]2O[C@H](COP(=O)(O)OP(=O)(O)OC[C@H]3O[C@@H](n4cnc5c(N)ncnc54)[C@H](OP(=O)(O)O)[C@@H]3O)[C@@H](O)[C@H]2O)C=CC1 [NADPH] | no interaction heat was detected for the T79A mutant | Interactions between enzymes and NADPH were detected by isothermal titration calorimetry using nano-ITC2g | The binding constant of the D83A mutant with NADPH was similar to that of the wild type | –
Saccharomyces cerevisiae RIB7 (enzyme, RIB7, riboflavin biosynthesis reductase of Saccharomyces cerevisiae; RIB7 gene amplified from genomic DNA and cloned BamHI/XhoI into pGEX6p-1; Wild type; A seleno-methionine derivative was used only for phasing; Residues left by the PreScission site after cleavage are not described; also called ScRIB7; riboflavin biosynthesis reductase RIB7; source: E. coli BL21 (DE3), purified …) MSLTPLCEDLPQFLQNYLPNAGQTENTIVPFVTLTYAQSLDARVSRGPGVRTTISHPETKTMTHYLRHHHDGILVGSGTVLADNPGLNCKWGPDPAANSPRPIIIDTKQKWRFDGSKMQELFIKRQGKPPIVVVTSEPIIKEQHVDYAICPINDTTKLVDWKKLFEILKEEFNIRSVMVEGGANVINQLLLRSDIVNSLIITIGSTFLGSSGTEVSPPQTVNLKDMSWWKGITDVVLCARLADD | – | – | – | 2
